# From patent US8039639B2, “Kinase inhibitors and methods of use thereof” (Array BioPharma Inc., priority 2006, dated 2011)
# pIC50: −log10 of the molar value. Residues, ends and D or L forms follow the SMILES beside them. *: point of attachment. Cbz = O=C(OCc1ccccc1)*
# Experiments:
# K562 cells = assay: K562 subcutaneous tumor model (BCR-Abl-driven tumors); format: in vivo, Female Scid-beige mice; details: K562 tumors, PO ×7, dosed as Compound 74
# Procedure: Test compounds were administered by oral gavage at the indicated doses and schedules when tumors reached 200±50 mm^3 in size. […] Tumor size and body weight were monitored throughout the study.
# Solubility determination = format: physicochemical
# p38α = p38α (Homo sapiens, UniProt Q16539); assay: in-house p38α radioactive kinase assay using ATF-2 as a substrate; format: biochemical; details: ATF-2 substrate
# Chain of p38α (Q16539 whole entry, the tested form may be a part): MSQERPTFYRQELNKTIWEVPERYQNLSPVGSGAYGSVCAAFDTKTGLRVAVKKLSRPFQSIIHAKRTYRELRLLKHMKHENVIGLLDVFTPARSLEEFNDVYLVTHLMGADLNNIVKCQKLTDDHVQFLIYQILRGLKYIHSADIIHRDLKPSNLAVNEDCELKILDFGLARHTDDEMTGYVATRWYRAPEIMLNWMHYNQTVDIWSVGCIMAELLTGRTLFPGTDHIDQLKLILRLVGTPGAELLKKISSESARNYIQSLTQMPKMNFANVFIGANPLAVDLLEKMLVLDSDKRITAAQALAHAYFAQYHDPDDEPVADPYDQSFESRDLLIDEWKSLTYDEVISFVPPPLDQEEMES
# Procedure: p38 activity was assayed at room temperature in a 100 μL reaction containing 5 nM activated p38α enzyme and 1 μM ATF-2 (Activating Transcription Factor 2 fusion protein) as the substrate in 25 mM HEPES (pH 7.4), 100 μM Vanadate, 1 mM DTT, 10 mM MgCl2 and 10 μM [γ-^33P]-ATP (˜0.1 μCi P^33/reaction). The reaction was terminated after 30-40 minutes by adding 25% TCA, allowed to stand for 5 minutes, and then transferred directly to a GF-B membrane filter plate. The filter was washed twice for 30 seconds with 0.5% phosphoric acid using a Tomtec Mach III Automated Harvestor. After washing, the vacuum was continued for 30 seconds to dry the filter. Approximately 30 μL of scintillant was added per well to the filter plate and then read in a Liquid Scintillation Counter (Packard TopCount HTS).
# Tie2 = Tie2 (Homo sapiens, UniProt Q02763); assay: protein kinase IC50 determination (ATP at Km); format: biochemical; details: ATP concentration at Km
# Chain of Tie2 (Q02763 23-1124, species assumed): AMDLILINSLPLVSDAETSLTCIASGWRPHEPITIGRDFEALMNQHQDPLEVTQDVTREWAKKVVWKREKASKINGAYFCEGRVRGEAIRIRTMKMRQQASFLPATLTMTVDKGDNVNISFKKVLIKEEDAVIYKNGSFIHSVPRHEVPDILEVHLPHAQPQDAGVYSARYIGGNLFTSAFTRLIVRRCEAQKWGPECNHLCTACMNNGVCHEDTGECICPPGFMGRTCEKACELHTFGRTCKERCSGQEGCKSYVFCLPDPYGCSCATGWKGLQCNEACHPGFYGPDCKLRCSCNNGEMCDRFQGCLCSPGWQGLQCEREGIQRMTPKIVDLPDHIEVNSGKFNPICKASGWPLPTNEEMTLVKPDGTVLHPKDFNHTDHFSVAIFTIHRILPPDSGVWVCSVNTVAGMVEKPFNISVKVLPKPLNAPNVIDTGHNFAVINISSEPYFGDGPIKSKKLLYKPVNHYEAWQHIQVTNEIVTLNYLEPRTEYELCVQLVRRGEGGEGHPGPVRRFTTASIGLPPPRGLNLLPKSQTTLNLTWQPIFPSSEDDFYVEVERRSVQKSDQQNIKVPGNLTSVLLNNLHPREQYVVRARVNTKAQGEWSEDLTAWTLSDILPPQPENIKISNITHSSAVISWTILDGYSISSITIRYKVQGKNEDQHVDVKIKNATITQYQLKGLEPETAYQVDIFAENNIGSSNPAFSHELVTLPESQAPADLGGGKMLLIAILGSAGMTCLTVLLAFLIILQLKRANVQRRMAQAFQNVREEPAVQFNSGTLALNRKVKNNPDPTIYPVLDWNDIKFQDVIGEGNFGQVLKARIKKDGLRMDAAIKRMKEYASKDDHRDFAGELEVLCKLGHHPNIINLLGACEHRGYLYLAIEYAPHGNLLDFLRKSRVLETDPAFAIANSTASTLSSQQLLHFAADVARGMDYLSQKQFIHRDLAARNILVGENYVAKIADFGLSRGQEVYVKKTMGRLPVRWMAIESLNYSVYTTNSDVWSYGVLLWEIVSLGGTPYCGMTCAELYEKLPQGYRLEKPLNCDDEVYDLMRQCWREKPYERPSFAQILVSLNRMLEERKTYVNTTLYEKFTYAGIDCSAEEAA
# Abl = Abl (Homo sapiens, UniProt P00519); assay: protein kinase IC50 determination (ATP at Km); format: biochemical; details: ATP concentration at Km
# Chain of Abl (P00519 whole entry, species assumed): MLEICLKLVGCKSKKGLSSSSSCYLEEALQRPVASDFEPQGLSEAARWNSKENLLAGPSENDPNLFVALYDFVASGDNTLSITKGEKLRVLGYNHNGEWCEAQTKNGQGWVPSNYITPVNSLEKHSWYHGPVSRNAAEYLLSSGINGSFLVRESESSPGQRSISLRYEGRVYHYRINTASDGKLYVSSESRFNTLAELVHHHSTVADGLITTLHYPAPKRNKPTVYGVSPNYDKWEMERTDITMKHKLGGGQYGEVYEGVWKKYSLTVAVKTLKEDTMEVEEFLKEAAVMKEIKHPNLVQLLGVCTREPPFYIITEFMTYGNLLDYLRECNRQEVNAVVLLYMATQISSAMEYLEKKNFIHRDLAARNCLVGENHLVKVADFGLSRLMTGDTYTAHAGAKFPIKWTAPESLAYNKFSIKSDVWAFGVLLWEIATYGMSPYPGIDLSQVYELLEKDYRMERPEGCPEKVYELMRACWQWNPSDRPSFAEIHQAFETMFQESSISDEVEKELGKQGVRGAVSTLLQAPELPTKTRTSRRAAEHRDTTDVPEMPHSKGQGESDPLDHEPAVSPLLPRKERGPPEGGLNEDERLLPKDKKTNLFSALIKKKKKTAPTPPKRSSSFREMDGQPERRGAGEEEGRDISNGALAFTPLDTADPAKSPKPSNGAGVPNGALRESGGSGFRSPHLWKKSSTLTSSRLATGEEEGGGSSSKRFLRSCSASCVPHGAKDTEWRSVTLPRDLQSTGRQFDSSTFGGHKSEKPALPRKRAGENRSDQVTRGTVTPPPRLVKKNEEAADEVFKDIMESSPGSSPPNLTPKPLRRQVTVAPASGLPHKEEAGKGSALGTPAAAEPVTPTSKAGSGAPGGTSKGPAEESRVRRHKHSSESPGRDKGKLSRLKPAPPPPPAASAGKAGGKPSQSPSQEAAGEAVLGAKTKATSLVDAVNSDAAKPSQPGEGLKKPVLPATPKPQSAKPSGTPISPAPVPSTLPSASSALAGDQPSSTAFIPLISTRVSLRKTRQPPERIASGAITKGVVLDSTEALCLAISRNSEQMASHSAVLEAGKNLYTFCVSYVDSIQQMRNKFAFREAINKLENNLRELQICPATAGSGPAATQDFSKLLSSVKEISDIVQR
# RPMI 8226 = RPMI 8226 cell viability (CellTiter Blue); format: cell-based; details: Homo sapiens; RPMI 8226, 72 hours; read-out: Proliferation IC50
# Procedure: Cell viability was then measured using CellTiter Blue (Promega) to determine IC50 values for each compound (Table 8). […] MG-132 produced an IC50 that was within historical ranges of in-house testing (Table 8).
"solubility (Solubility determination; pH 1.2, simulated gastric fluid) [µg/mL]",pIC50 (p38α),pIC50 (Tie2),pIC50 (Abl),"solubility (Solubility determination; pH 6.5, aqueous buffer) [µg/mL]","solubility (Solubility determination; pH 7.4, aqueous buffer) [µg/mL]",SMILES,% Regression (K562 cells; 30 mg/kg BID),% Regression (K562 cells; 100 mg/kg BID) [%],% Regression (K562 cells; 100 mg/kg QD),pIC50 (RPMI 8226)
< 1000,,,,,,"Cc1ccc(-n2nc(C(C)(C)C)cc2NC(=O)NCc2cc(F)ccc2Oc2ccc3c(cnn3CCOP(=O)(O)O)c2)cc1 [Compound 74, 2-(5-(2-(3-(3-tert-butyl-1-p-tolyl-1H-pyrazol-5-yl)ureido)methyl)-4-fluorophenoxy)-1H-indazol-1-yl)ethyl dihydrogenphosphate]",tumor stasis,94,tumor stasis,
,> 8.70,8.40,8.00,< 1,< 1,Cc1ccc(-n2nc(C(C)(C)C)cc2NC(=O)NCc2cc(F)ccc2Oc2ccc3c(cnn3C)c2)cc1 [Example 94],,,,
,> 8.70,< 6.30,< 6.30,< 1,< 1,Cn1nc(C(C)(C)C)cc1NC(=O)NCc1cc(F)ccc1Oc1ccc2c(cnn2CC(C)(C)O)c1 [Example 138],,,,
,,,,,,"CC(C)C[C@@H](C=O)NC(=O)[C@H](CC(C)C)NC(=O)[C@H](CC(C)C)NC(=O)OCc1ccccc1 [MG-132, reference compound] (Cbz-Leu-Leu-Leu-aldehyde)",,,,6.94
